# US9856279B2 (AGIOS PHARMACEUTICALS, INC, priority 2011, dated 2018)
# Target: IDH1 R132H (Homo sapiens, UniProt O75874, R132H)
# Experiment: Assay for IDH1 R132H inhibitors (NADPH/aKG, resazurin detection)
# Assay type: biochemical
# Settings: Table 3; enzyme assay, 50 minutes at room temperature; read-out: IC50 (IDH1 R132H Inhibition)
# Method in brief: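 Read-out is resorufin fluorescence (Ex544/Em590) 5 min after adding a 30 μM resazurin detection mix. Before that, mutant enzyme (0.2 μg/ml in its mix) ran 50 min at room temperature with compound, 8 uM NADPH and 2 mM aKG (mix levels) in Tris pH 7.5 with NaCl, MgCl2, BSA.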
# Chain of IDH1 R132H (O75874 whole entry R132H): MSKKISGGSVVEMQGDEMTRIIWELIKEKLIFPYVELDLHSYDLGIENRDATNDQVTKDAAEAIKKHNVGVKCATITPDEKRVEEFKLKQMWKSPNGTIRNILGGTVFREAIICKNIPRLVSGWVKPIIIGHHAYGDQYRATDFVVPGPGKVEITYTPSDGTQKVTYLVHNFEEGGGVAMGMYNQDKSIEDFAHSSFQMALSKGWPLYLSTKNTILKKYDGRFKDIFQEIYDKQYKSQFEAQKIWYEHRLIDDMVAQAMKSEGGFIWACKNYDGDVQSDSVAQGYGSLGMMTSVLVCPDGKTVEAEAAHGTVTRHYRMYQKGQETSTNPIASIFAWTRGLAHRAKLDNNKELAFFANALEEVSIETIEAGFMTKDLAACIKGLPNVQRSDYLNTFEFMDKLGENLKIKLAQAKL
row,IC50,SMILES
1,1000 to 5000 nM,"Cc1occc1C(=O)N1CCN(c2nc(C(C)C)c(-c3ccccc3)cc2C#N)C[C@H]1C [Compound 164, (R)-6-isopropyl-2-(3-methyl-4-(2-methylfuran-3-carbonyl)piperazin-1-yl)-5-phenylnicotinonitrile]"
2,5000 to 15000 nM,"N#Cc1cc(-c2ccccc2)c(-c2ccccc2)nc1N1CCN(C(=O)Cc2ccccc2)CC1 [Compound 123, 5,6-diphenyl-2-(4-(2-phenylacetyl)piperazin-1-yl)nicotinonitrile]"
3,1000 to 5000 nM,CC(C)c1nc(N2CCN(C(=O)c3ccoc3)[C@H](C(C)C)C2)c(C#N)cc1-c1ccc(C(F)(F)F)cc1 [Compound 195]
4,1000 to 5000 nM,"Cc1occc1C(=O)N1CCN(c2nc(C(C)C)c(-c3ccoc3)cc2C#N)C[C@H]1C [Compound 203, (R)-5-(furan-3-yl)-6-isopropyl-2-(3-methyl-4-(2-methylfuran-3-carbonyl)piperazin-1-yl)nicotinonitrile]"
5,5000 to 15000 nM,"CC1CN(c2nc(-c3ccccc3)c(-c3ccccc3)cc2C#N)CCN1C(=O)c1ccco1 (centres unmarked) [Compound 117, 2-(4-(furan-2-carbonyl)-3-methylpiperazin-1-yl)-5,6-diphenylnicotinonitrile]"
6,≤ 1000 nM,"COCCC(=O)N1CCN(c2nc(C3CC3)c(-c3ccc(F)c(Cl)c3)cc2C#N)C[C@H]1C [Compound 248, (R)-5-(3-chloro-4-fluorophenyl)-6-cyclopropyl-2-(4-(3-methoxypropanoyl)-3-methylpiperazin-1-yl)nicotinonitrile]"
7,5000 to 15000 nM,"CC(C)c1nc(N2CCN(C(=O)c3ccco3)C(C)C2)c(C#N)cc1-c1ccccc1 (centres unmarked) [Compound 119, 2-(4-(furan-2-carbonyl)-3-methylpiperazin-1-yl)-6-isopropyl-5-phenylnicotinonitrile]"
8,≤ 1000 nM,"COCCC(=O)N1CCN(c2nc(C3CC3)c(-c3ccc(F)cc3F)cc2C#N)C[C@H]1C [Compound 250, (R)-6-cyclopropyl-5-(2,4-difluorophenyl)-2-(4-(3-methoxypropanoyl)-3-methylpiperazin-1-yl)nicotinonitrile]"
9,1000 to 5000 nM,"Cc1cccc(-c2cc(C#N)c(N3CCN(C(=O)c4ccoc4C)[C@H](C)C3)nc2C(C)C)c1 [Compound 200, (R)-6-isopropyl-2-(3-methyl-4-(2-methylfuran-3-carbonyl)piperazin-1-yl)-5-m-tolylnicotinonitrile]"
10,1000 to 5000 nM,"COCCC(=O)N1CCN(c2nc(C(C)C)c(-c3ccc(OC(F)(F)F)cc3)cc2C#N)C[C@H]1C [Compound 232, (R)-6-isopropyl-2-(4-(3-methoxypropanoyl)-3-methylpiperazin-1-yl)-5-(4-(trifluoromethoxy)phenyl)nicotinonitrile]"

# Same assay, conditions: enzyme assay of Example 12; read-out: IDH1R132H IC50
row,IC50,SMILES
1,< 500 nM,"CCO[C@H]1C[C@H]1C(=O)N1CCN(c2nc(C3CC3)c(-c3ccc(F)cc3)cc2C#N)C[C@H]1C1CC1 [Compound 564, 6-cyclopropyl-2-((R)-3-cyclopropyl-4-((1R,2S)-2-ethoxycyclopropanecarbonyl)piperazin-1-yl)-5-(4-fluorophenyl)nicotinonitrile]"
2,< 500 nM,"COCCC(=O)N1CCN(c2nc(C3CC3)c(N(c3ccnc(C#N)c3)c3ccnc(C#N)c3)cc2C#N)C[C@H]1C [Compound 659, (R)-4,4′-(5-cyano-2-cyclopropyl-6-(4-(3-methoxypropanoyl)-3-methylpiperazin-1-yl)pyridin-3-ylazanediyl)dipicolinonitrile]"
3,< 500 nM,"COCCC(=O)N1CCN(c2nc(C3CC3)c(-c3cc(Cl)nc(Cl)c3)cc2C#N)C[C@H]1C [Compound 586, (R)-2′,6′-dichloro-2-cyclopropyl-6-(4-(3-methoxypropanoyl)-3-methylpiperazin-1-yl)-[3,4′-bipyridine]-5-carbonitrile]"
4,500 to 1000 nM,"COCCC(=O)N1CCN(c2nc(C3CC3)c(-c3c(OC)cccc3OC)cc2C#N)C[C@H]1C [Compound 316, (R)-6-cyclopropyl-5-(2,6-dimethoxyphenyl)-2-(4-(3-methoxypropanoyl)-3-methylpiperazin-1-yl)nicotinonitrile]"
5,500 to 1000 nM,"N#Cc1cc(-c2ccnc(N)n2)c(C2CC2)nc1N1CCN(C(=O)C2CC2)[C@H](C2CC2)C1 [Compound 507, (R)-5-(2-aminopyrimidin-4-yl)-2-(4-(cyclopropanecarbonyl)-3-cyclopropylpiperazin-1-yl)-6-cyclopropylnicotinonitrile]"
6,< 500 nM,"N#Cc1cc(Nc2ccnc(CO)c2)c(C2CC2)nc1N1CCN(C(=O)C[C@H]2CCO2)[C@H](C2CC2)C1 [Compound 824, 6-cyclopropyl-2-((R)-3-cyclopropyl-4-(2-((R)-oxetan-2-yl)acetyl)piperazin-1-yl)-5-((2-(hydroxymethyl)pyridin-4-yl)amino)nicotinonitrile]"
7,< 500 nM,"C[C@@H]1CN(c2nc(C3CC3)c(-c3cccc4cnccc34)cc2C#N)CCN1C(=O)CCO [Compound 402, (R)-6-cyclopropyl-2-(4-(3-hydroxypropanoyl)-3-methylpiperazin-1-yl)-5-(isoquinolin-5-yl)nicotinonitrile]"
8,< 500 nM,"COCCC(=O)N1CCN(c2nc(C3CC3)c(-c3cccc4c3CN(C)C4=O)cc2C#N)C[C@H]1C [Compound 460, (R)-6-Cyclopropyl-2-(4-(3-methoxypropanoyl)-3-methylpiperazin-1-yl)-5-(2-methyl-1-oxoisoindolin-4-yl)nicotinonitrile]"
9,500 to 1000 nM,"COCCC(=O)N1CCN(c2nc(C3CC3)c(-c3cccnc3F)c(C)c2C#N)C[C@H]1C [Compound 369, (R)-2-cyclopropyl-2′-fluoro-6-[4-(3-methoxy-propionyl)-3-methyl-piperazin-1-yl]-4-methyl-[3,3′]bipyridinyl-5-carbonitrile]"
10,< 500 nM,"COCCC(=O)N1CCN(c2nc(C3CC3)c(-c3cccc(N(C)C)c3)c(C)c2C#N)C[C@H]1C [Compound 362, (R)-6-cyclopropyl-5-(3-dimethylamino-phenyl)-2-[4-(3-methoxy-propionyl)-3-methyl-piperazin-1-yl]-4-methyl-nicotinonitrile]"
11,< 500 nM,"CC(C)(C)OC(=O)Nc1cnnc(-c2cc(C#N)c(N3CCN(C(=O)CCO)[C@H](C4CC4)C3)nc2C2CC2)c1 [Compound 723, (R)-tert-butyl(6-(5-cyano-2-cyclopropyl-6-(3-cyclopropyl-4-(3-hydroxypropanoyl)piperazin-1-yl)pyridin-3-yl)pyridazin-4-yl)carbamate]"
12,< 500 nM,"COCCC(=O)N1CCN(c2nc(C3CC3)c(Nc3ccnc(C(N)=O)c3)cc2C#N)C[C@H]1C [Compound 729, (R)-4-(5-cyano-2-cyclopropyl-6-(4-(3-methoxypropanoyl)-3-methylpiperazin-1-yl)pyridin-3-ylamino)picolinamide]"
13,500 to 1000 nM,"COCCC(=O)N1CCN(c2nc(C3CC3)c(-c3cccc(NC(C)=O)c3)cc2C#N)C[C@H]1C [Compound 284, (R)—N-(3-(5-cyano-2-cyclopropyl-6-(4-(3-methoxypropanoyl)-3-methylpiperazin-1-yl)pyridin-3-yl)phenyl)acetamide]"
14,< 500 nM,"CCc1ccccc1-c1c(C2CC2)nc(N2CCN(C(=O)CCOC)[C@H](C)C2)c(C#N)c1C [Compound 359, (R)-6-cyclopropyl-5-(2-ethyl-phenyl)-2-[4-(3-methoxy-propionyl)-3-methyl-piperazin-1-yl]-4-methyl-nicotinonitrile]"
15,< 500 nM,"C=Cc1nc(-c2cc(C#N)c(N3CCN(C(=O)CCOC)[C@H](C)C3)nc2C2CC2)ncc1F [Compound 601, (R)-6-cyclopropyl-5-(5-fluoro-4-vinylpyrimidin-2-yl)-2-(4-(3-methoxypropanoyl)-3-methylpiperazin-1-yl)nicotinonitrile]"
16,< 500 nM,"COCCC(=O)N1CCN(c2nc(C3CC3)c(-c3cccc(COC)c3)c(C)c2C#N)C[C@H]1C [Compound 322, (R)-6-cyclopropyl-5-(3-methoxymethyl-phenyl)-2-[4-(3-methoxy-propionyl)-3-methyl-piperazin-1-yl]-4-methyl-nicotinonitrile]"
17,500 to 1000 nM,"COCCC(=O)N1CCN(c2nc(C3CC3)c(-c3ccc(N4CCOCC4)cc3)cc2C#N)C[C@H]1C [Compound 354, (R)-6-cyclopropyl-2-[4-(3-methoxy-propionyl)-3-methyl-piperazin-1-yl]-5-(4-morpholin-4-yl-phenyl)-nicotinonitrile]"
18,500 to 1000 nM,"CCOC(=O)[C@@H]1C[C@H]1C(=O)N1CCN(c2nc(C3CC3)c(-c3cccc4cnccc34)cc2C#N)C[C@H]1C [Compound 435, (1R,2R)-ethyl 2-((R)-4-(3-cyano-6-cyclopropyl-5-(isoquinolin-5-yl)pyridin-2-yl)-2-methylpiperazine-1-carbonyl)cyclopropanecarboxylate]"
19,< 500 nM,"COCCC(=O)N1CCN(c2nc(C3CC3)c(-c3cccnc3OC)cc2C#N)C[C@H]1C [Compound 328, (R)-2-cyclopropyl-2′-methoxy-6-[4-(3-methoxy-propionyl)-3-methyl-piperazin-1-yl]-[3,3]bipyridinyl-5-carbonitrile]"
20,500 to 1000 nM,"COCCC(=O)N1CCN(c2nc(C3CC3)c(N3CCN(C(C)=O)CC3)cc2C#N)C[C@H]1C [Compound 368, (R)-5-(4-acetylpiperazin-1-yl)-6-cyclopropyl-2-(4-(3-methoxypropanoyl)-3-methylpiperazin-1-yl)nicotinonitrile]"
21,500 to 1000 nM,"COCCC(=O)N1CCN(c2nc(C3CC3)c(-c3ccc(C(=O)N(C)OC)cc3)cc2C#N)C[C@H]1C [Compound 656, (R)-4-(5-cyano-2-cyclopropyl-6-(4-(3-methoxypropanoyl)-3-methylpiperazin-1-yl)pyridin-3-yl)-N-methoxy-N-methylbenzamide]"
22,500 to 1000 nM,"N#Cc1cc(-c2cnn(CC(N)=O)c2)c(C2CC2)nc1N1CCN(C(=O)C2CC2)[C@H](C2CC2)C1 [Compound 501, (R)-2-(4-(5-cyano-6-(4-(cyclopropanecarbonyl)-3-cyclopropylpiperazin-1-yl)-2-cyclopropylpyridin-3-yl)-1H-pyrazol-1-yl)acetamide]"
